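Tested at 5 concentrations; 48 h exposure; 96-well plates; endpoints linearly interpolated, else capped at highest concentration. The concentration for 50% growth inhibition is given as GI50. Definition used: TGI = concentration required for complete inhibition of growth.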
What was measured:
Assay in all cases: NCI anticancer screen, dose series, 48 h
786-0 renal = tested on: 786-0 renal
A498 renal = tested on: A498 renal
HCC-2998 colon = tested on: HCC-2998 colon
HS 578T breast = tested on: HS 578T breast
NCI/ADR-RES ovarian = tested on: NCI/ADR-RES ovarian
SK-OV-3 ovarian = tested on: SK-OV-3 ovarian
SNB-19 CNS = tested on: SNB-19 CNS
TK-10 renal = tested on: TK-10 renal
UACC-257 melanoma = tested on: UACC-257 melanoma
SK-MEL-2 melanoma = tested on: SK-MEL-2 melanoma

SMILES | TGI (786-0 renal) | TGI (A498 renal) | TGI (HCC-2998 colon) | TGI (HS 578T breast) | TGI (NCI/ADR-RES ovarian) | TGI (SK-OV-3 ovarian) | TGI (SNB-19 CNS) | TGI (TK-10 renal) | TGI (UACC-257 melanoma) | TGI (SK-MEL-2 melanoma) | GI50 (A498 renal) | GI50 (HCC-2998 colon) | GI50 (HS 578T breast) | GI50 (NCI/ADR-RES ovarian) | GI50 (SK-MEL-2 melanoma) | GI50 (SK-OV-3 ovarian) | GI50 (SNB-19 CNS) | GI50 (TK-10 renal) | GI50 (UACC-257 melanoma)
CN(C)c1nc(=NCc2ccccn2)ss1 | > 5.57 µM | > 10 µM | > 10 µM | > 10 µM | > 10 µM | > 10 µM | > 10 µM | > 10 µM | > 10 µM | – | – | – | – | – | – | – | – | – | –
COc1ccc(/C=C/C(=O)c2sc(-n3nc(-c4ccccc4)cc3-c3ccccc3)nc2C)cc1OC | > 100 µM | – | > 100 µM | – | – | > 100 µM | > 100 µM | > 100 µM | > 100 µM | > 100 µM | – | – | – | – | – | – | – | – | –
Brc1ccc2c(c1)-c1nc3c(cc1CC2)CCc1ccc(Br)cc1-3 | > 100 µM | > 100 µM | > 100 µM | – | > 100 µM | > 100 µM | > 100 µM | > 100 µM | > 100 µM | > 100 µM | – | – | – | – | – | – | – | – | –
CCOC(=O)Cc1nn2c(=O)cc(C)nc2s1 | > 100 µM | – | > 100 µM | > 100 µM | > 100 µM | > 100 µM | > 100 µM | > 100 µM | > 100 µM | > 100 µM | – | – | – | – | – | – | – | – | –
Cc1ccc([N+](=O)[O-])c2c(NCCCN(C)C)ccnc12 | > 100 µM | > 100 µM | 45.5 µM | > 100 µM | > 100 µM | – | > 100 µM | > 100 µM | > 91.1 µM | > 100 µM | – | – | – | – | – | – | – | – | –
N/C(CSCCSC/C(N)=N/O)=N\O | > 100 µM | – | > 100 µM | > 100 µM | > 100 µM | > 100 µM | > 100 µM | > 100 µM | – | – | – | – | – | – | – | – | – | – | –
CCOC(=O)/C(=C/c1ccco1)P(=O)(OCC)OCC | > 100 µM | > 100 µM | > 100 µM | – | – | > 100 µM | – | > 100 µM | > 100 µM | > 100 µM | – | – | – | – | – | – | – | – | –
NC(CCSCC(F)F)C(=O)O (configuration not stated) | > 100 µM | > 100 µM | > 100 µM | – | – | – | > 100 µM | > 100 µM | > 100 µM | – | – | – | – | – | – | – | – | – | –
COc1cc(-c2c3c(cc4c2OCO4)[C@@H](Nc2ccc4c(c2)Cc2cc(N[C@@H]5c6cc7c(cc6C(c6cc(OC)c(O)c(OC)c6)[C@H]6C(=O)OC[C@H]56)OCO7)ccc2-4)[C@H]2COC(=O)[C@@H]2C3)cc(OC)c1O (some centres not stated) | 63.7 µM | 94.2 µM | – | > 100 µM | 42.2 µM | 41.1 µM | > 100 µM | > 100 µM | > 100 µM | – | – | – | – | – | – | – | – | – | –
Nc1nc(Nc2ccc(OCc3cccc(F)c3)cc2)c2c(n1)[nH]c1ccc(O)cc12 | – | 33.1 µM | 13.6 µM | 6.29 µM | 32 µM | 31.3 µM | 21.7 µM | 16.4 µM | 22.2 µM | 7.71 µM | 15.7 µM | 3.46 µM | 2.41 µM | 9.46 µM | 2.61 µM | 17.1 µM | 4.4 µM | 3.49 µM | 4.81 µM
Cc1cc(C)nc(NS(=O)(=O)c2ccc(Nc3c4ccccc4nc4c(C(=O)N5CCN(CCOS(C)(=O)=O)CC5)ccc(Cl)c34)cc2)n1 | > 100 µM | > 100 µM | > 100 µM | – | – | > 100 µM | > 100 µM | > 100 µM | > 100 µM | > 100 µM | – | – | – | – | – | – | – | – | –
NC(=O)NC(=NCc1ccccc1)NCc1ccccc1 | > 100 µM | – | > 100 µM | – | – | > 100 µM | > 100 µM | > 100 µM | > 100 µM | > 100 µM | – | – | – | – | – | – | – | – | –
CCOC1NC(=O)c2ccccc21 (configuration not stated) | > 100 µM | – | > 100 µM | > 100 µM | > 100 µM | > 100 µM | > 100 µM | > 100 µM | > 100 µM | – | – | – | – | – | – | – | – | – | –
COC(=O)/C(=N\NC(=S)NN)C(C(=O)C(=O)Nc1ccccc1C(N)=O)c1nc2ccccc2[nH]c1=O (configuration not stated) | > 100 µM | – | > 100 µM | – | – | – | > 100 µM | > 100 µM | > 100 µM | > 100 µM | – | – | – | – | – | – | – | – | –
O=C(NCCCNCCCCNCCCNC(=O)C(F)(F)F)C(F)(F)F | > 100 µM | > 100 µM | > 100 µM | > 100 µM | > 100 µM | > 100 µM | – | > 100 µM | > 100 µM | > 100 µM | – | – | – | – | – | – | – | – | –
C[C@@H]1C(=O)CC2(O)[C@@]13C[C@@H](OC(=O)[C@@H]3O)[C@@H](C)[C@@]21COC1=O (some centres not stated) | > 100 µM | – | > 100 µM | > 100 µM | > 100 µM | > 100 µM | > 100 µM | > 100 µM | > 100 µM | > 100 µM | – | – | – | – | – | – | – | – | –
Nc1n[nH]c2ccccc12 | > 100 µM | > 100 µM | – | > 100 µM | > 100 µM | > 100 µM | > 100 µM | > 100 µM | > 100 µM | > 100 µM | – | – | – | – | – | – | – | – | –
O=C1NN=C(c2c[nH]c3ccccc23)CC1NCc1ccccc1 (configuration not stated) | > 100 µM | > 100 µM | – | > 100 µM | > 100 µM | > 100 µM | > 100 µM | > 100 µM | > 100 µM | > 100 µM | – | – | – | – | – | – | – | – | –
O=C(CN=C(CN(c1ccccc1)c1ccccc1)Oc1c(Cl)cc(Cl)cc1Cl)n1cnc2ccccc21 | > 100 µM | – | > 100 µM | > 100 µM | > 100 µM | > 100 µM | > 100 µM | > 100 µM | > 100 µM | – | – | – | – | – | – | – | – | – | –
NC(=S)N=Nc1c(O)cc(Nc2ccc(Cl)cc2Cl)c2ccccc12 | 26.3 µM | > 100 µM | > 100 µM | – | > 100 µM | 61.5 µM | 88.6 µM | > 100 µM | > 100 µM | > 100 µM | – | – | – | – | – | – | – | – | –
COC(=O)c1cc(C(=O)OC)cc(-c2ccc3c(c2)-c2nc4c(c(-c5ccc(OC)cc5)c2CC3)CCc2ccc(-c3cc(C(=O)OC)cc(C(=O)OC)c3)cc2-4)c1 | > 100 µM | > 100 µM | > 100 µM | – | > 100 µM | > 100 µM | > 100 µM | > 100 µM | > 100 µM | > 100 µM | – | – | – | – | – | – | – | – | –
CCOC(=O)C(NC(=O)c1ccc(N=NN(C)C)cc1)C(C)C (configuration not stated) | > 100 µM | > 100 µM | > 100 µM | – | – | > 100 µM | > 100 µM | > 100 µM | > 100 µM | > 100 µM | – | – | – | – | – | – | – | – | –
Cc1ncc([N+](=O)[O-])n1CCNC(=O)CCCCn1ccnc1[N+](=O)[O-] | > 100 µM | > 100 µM | > 100 µM | > 100 µM | > 100 µM | > 100 µM | > 100 µM | – | > 100 µM | > 100 µM | – | – | – | – | – | – | – | – | –

From PubChem BioAssay (NCI)
